In publication PMC11593002 (Current Issues in Molecular Biology, 2024):
“Also recorded” adds a separate entry of the source.

Assays:
MCF-10A = assay: MTT-dye reduction antiproliferative assay, MCF-10A; assay type: cell-based; conditions: for IC50: Homo sapiens
Text: (§1) Breast cell lines (MCF-10A, MCF-7, and MDA-MB-231) were purchased from the American Type Culture Collection—ATCC (Manassas, VA, USA). MCF-7 and MDA-MB-231 were cultivated in Dulbecco’s modified Eagle’s medium (DMEM), supplemented with 10% fetal bovine serum (FBS), 1% sodium pyruvate, and 1% MEM non-essential amino acids (NEAA) without antibiotics. The non-tumorigenic cell line (MCF-10A) was cultivated in DMEM medium (Sigma-Aldrich, St. Louis, MO, USA) and supplemented with 10% FBS, 1% sodium pyruvate, 1% non-essential amino acids (NEAA), 20 ng/mL human epidermal growth factor (hEGF), 10 μg/mL insulin, and 0.5 μg/mL hydrocortisone without antibiotics. All cell lines were maintained in a humidified atmosphere with 5% CO2 at 37 °C.
(§2) The antiproliferative activity was tested via using the standard MTT-dye reduction assay described by Mosmann. The method is based on the metabolism of the tetrazolium salt MTT to insoluble formazan. The formazan absorption was registered using a microplate reader at λ = 540 nm. The measured absorption is an indicator of cell viability and metabolic activity.

MCF-7 [1] = assay: MTT-dye reduction antiproliferative assay, MCF-7; assay type: cell-based
Text: as §1, §2

MDA-MB-231 [2] = assay: MTT-dye reduction antiproliferative assay, MDA-MB-231; assay type: cell-based
Text: as §1, §2

MCF-7 [3] = assay: Cell cycle analysis by propidium iodide staining (FACS), MCF-7; assay type: cell-based
Experimental: (§3) After trypsinization, the cells (MCF7, MDA-MB-231, and MCF10A) were resuspended in medium + 10% FCS and centrifuged (1000 rpm, 5 min); then, the pellet was suspended in PBS (1 mL) and fixed with EtOH. After suspension in 2.5 mL pre-cold 70% EtOH, the cells were incubated on ice for 15 min. The staining procedure was as follows: The pellet was suspended in a 500 μL PI solution in PBS (final concentration of PI 1 μg/mL) and 0.1 mg/mL RNAse A, and 0.05% Triton X-100 was added. Following the incubation for 10 min at 37 °C, the cells were transferred to the flow cytometer, and cell fluorescence was measured. The samples were measured by flow cytometry (LSR II, BD Biosciences, Franklin Lakes, NJ, USA) and analyzed using BD FACS DIVA software v. 6.1.3 (BD Biosciences). The control samples of all cell lines underwent the same treatment but without the adding any anticancer drugs or Iscador Qu.
(§4) In the search of the mechanism of action, the cell cycle arrest induced after treatment with the selected combinations was analyzed. The cell aliquots were collected, and FACS analyses were used to detect the effects of the treatments. A propidium iodide staining assay was performed (Figures S1 and S2).

MDA-MB-231 [4] = assay: Cell cycle analysis by propidium iodide staining (FACS), MDA-MB-231; assay type: cell-based
Experimental: as §3, §4

microtubule = system: microtubule; set-up: method as in PMID 7670132; conditions: cited from earlier work
[5] = drug + Iscador Qu 20 µg/mL vs drug alone
[6] = MDA-MB-231, drug + Iscador Qu 40 µg/mL vs drug alone
[7] = MDA-MB-231, drug + Iscador Qu 80 µg/mL vs drug alone
[8] = Iscador Qu both concentrations (50 or 100 µg/mL) or not specified
[9] = Iscador Qu both concentrations (10 and 20 µg/mL) or not specified
[10] = MDA-MB-231, Iscador Qu both concentrations (40 and 80 µg/mL) or not specified
[11] = drug + Iscador Qu 100 µg/mL vs drug alone
[12] = higher Iscador Qu concentration (20 µg/mL)
[13] = drug + Iscador Qu (selected combinations)

O=c1[nH]cc(F)c(=O)[nH]1 [5-Fluorouracyl, 5-Fluorouracil]
effect of combined treatment with Iscador Qu on IC50 / antiproliferative effect (MCF-10A; Iscador Qu 50 µg/mL): did not change the antiproliferative properties | effect of combined treatment with Iscador Qu on IC50 / antiproliferative effect (MCF-10A; Iscador Qu 100 µg/mL): slightly decreased | IC50 (MCF-7 [1]; Homo sapiens, MCF7, drug alone): 6790 nM | fold decrease in IC50 (MCF-7 [1]; drug + Iscador Qu 10 µg/mL vs drug alone): 1.5 fold | fold decrease in IC50 (MCF-7 [1]; [5]): 2.7 fold | reduction in IC50 (MCF-7 [1]; [5]): ~65% | IC50 (MDA-MB-231 [2]; Homo sapiens, MDA-MB-231, drug alone): 2040 nM | fold decrease in IC50 (MDA-MB-231 [2]; [6]): 1.2 fold | fold decrease in IC50 (MDA-MB-231 [2]; [7]): 1.5 fold | reduction in IC50 (MDA-MB-231 [2]; [7]): about 30% | lesser reduction in IC50 in MDA-MB-231 compared to MCF-7 (MDA-MB-231 [2]; combination with Iscador Qu): 33%

CCc1c2c(nc3ccc(OC(=O)N4CCC(N5CCCCC5)CC4)cc13)-c1cc3c(c(=O)n1C2)COC(=O)[C@]3(O)CC [Irinotecan]
effect of combined treatment with Iscador Qu on IC50 / antiproliferative effect (MCF-10A; [8]): did not affect IC50 | effect of combined treatment with Iscador Qu on IC50 / antiproliferative effect (MCF-7 [1]; [9]): did not affect IC50; also recorded: No effect | effect of combined treatment with Iscador Qu on IC50 / antiproliferative effect (MDA-MB-231 [2]; [10]): very slight IC50 decrease; also recorded: No significant alteration in IC50

COc1cccc2c1C(=O)c1c(O)c3c(c(O)c1C2=O)C[C@@](O)(C(=O)CO)C[C@@H]3O[C@H]1C[C@H](N)[C@@H](O)[C@H](C)O1 [Epirubicin]
IC50 (MCF-10A; drug alone): 387000 nM | fold decrease in IC50 (MCF-10A; [11]): 2 fold | effect of combined treatment with Iscador Qu on IC50 / antiproliferative effect (MCF-7 [1]; [9]): did not exhibit significant sensitivity; also recorded: No effect | fold decrease in IC50 (MDA-MB-231 [2]; [6]): 2 fold | fold decrease in IC50 (MDA-MB-231 [2]; [7]): 2 fold | reduction in IC50 (MDA-MB-231 [2]; [7]): 47%

O=C(c1cc(Cc2n[nH]c(=O)c3ccccc23)ccc1F)N1CCN(C(=O)C2CC2)CC1 [Olaparib]
effect of combined treatment with Iscador Qu on IC50 / antiproliferative effect (MCF-10A; [8]): slight decrease in IC50 dose | effect of combined treatment with Iscador Qu on IC50 / antiproliferative effect (MCF-7 [1]; [9]): antagonistic effect; also recorded: increase in IC50 dose | increase in IC50 (MCF-7 [1]; drug + Iscador Qu, concentration not given): 37% | effect of combined treatment with Iscador Qu on IC50 / antiproliferative effect (MCF-7 [1]; [12]): negative treatment effect | effect of combined treatment with Iscador Qu on IC50 / antiproliferative effect (MDA-MB-231 [2]; MDA-MB-231, Iscador Qu 40 µg/mL): negative treatment effect | effect of combined treatment with Iscador Qu on IC50 / antiproliferative effect (MDA-MB-231 [2]; [10]): increase in IC50 dose | increase in IC50 (MDA-MB-231 [2]; [7]): 22% | effect on cell cycle of combination vs anticancer drug alone (MCF-7 [3]; [13]): no significant difference | effect on cell cycle (MCF-7 [3]; mono treatment): arrest in the G2/M phase

CC(=O)O[C@@]12CO[C@@H]1C[C@H](O)[C@@]1(C)C(=O)[C@H](O)C3=C(C)[C@@H](OC(=O)[C@H](O)[C@@H](NC(=O)OC(C)(C)C)c4ccccc4)C[C@@](O)([C@@H](OC(=O)c4ccccc4)[C@H]21)C3(C)C [Docetaxel]
IC50 (MCF-10A; drug + Iscador Qu 50 µg/mL): ~4.2 nM | IC50 (MCF-10A; drug + Iscador Qu 100 µg/mL): ~4.2 nM | IC50 (MCF-10A; single treatment with drug): 5.18 nM | effect of combined treatment with Iscador Qu on IC50 / antiproliferative effect (MCF-10A; [8]): slightly reduced | fold decrease in IC50 (MCF-10A; drug + Iscador Qu 50 µg/mL vs drug alone): 1.2 fold | fold decrease in IC50 (MCF-10A; [11]): 1.2 fold | effect of combined treatment with Iscador Qu on IC50 / antiproliferative effect (MCF-7 [1]; [12]): very slight IC50 decrease | effect of combined treatment with Iscador Qu on IC50 / antiproliferative effect (MCF-7 [1]; low Iscador Qu concentration (10 µg/mL)): IC50 increase | fold decrease in IC50 (MDA-MB-231 [2]; [6]): more than 2 fold | fold decrease in IC50 (MDA-MB-231 [2]; [7]): 4 fold | reduction in IC50 (MDA-MB-231 [2]; [7]): 72% | effect on cell cycle of combination vs anticancer drug alone (MDA-MB-231 [4]; [13]): did not alter the effect | effect on cell cycle (MDA-MB-231 [4]; treatment alone): cell cycle arrest in the G0 phase | potency as an inhibitor of microtubule depolymerization compared to Paclitaxel (microtubule): 2 fold

CN(Cc1cnc2nc(N)nc(N)c2n1)c1ccc(C(=O)N[C@@H](CCC(=O)O)C(=O)O)cc1 [Methotrexate]
effect of combined treatment with Iscador Qu on IC50 / antiproliferative effect (MCF-10A; Iscador Qu 50 µg/mL): did not reduce the IC50 dose | effect of combined treatment with Iscador Qu on IC50 / antiproliferative effect (MCF-10A; Iscador Qu 100 µg/mL): slightly increased | effect of combined treatment with Iscador Qu on IC50 / antiproliferative effect (MCF-7 [1]; [9]): No effect | effect of combined treatment with Iscador Qu on IC50 / antiproliferative effect (MCF-7 [1]; Iscador Qu both concentrations (10 and 20 µg/mL) or not specified, listed as methotrexate): did not exhibit any sensitivity | fold decrease in IC50 (MDA-MB-231 [2]; [7]): 1.5 fold | reduction in IC50 (MDA-MB-231 [2]; [7]): about 30%
